Test results: ChEMBL document CHEMBL1130465, “Peptidic prodrugs of novel aminomethyl-THF 1-methylcarbapenems” (1997)
Values after ≈ are worked out from the molar mass of the structure shown.

Key:
Type in all cases: functional
Pseudomonas aeruginosa [1] = test: In vitro antimicrobial activity against Pseudomonas aeruginosa ATCC 27853 strain; settings: Pseudomonas aeruginosa, ATCC 27853; read-out: MIC
Enterobacter cloacae = test: In vitro antimicrobial activity against Enterobacter cloacae GC 2209 strain
Pseudomonas aeruginosa [2] = test: In vitro antimicrobial activity against Pseudomonas aeruginosa GC 1544 strain; settings: Pseudomonas aeruginosa; read-out: MIC
Escherichia coli [3] = test: In vitro antimicrobial activity against Escherichia coli ATCC 25922 strain
[4] = tested on: Acinetobacter calcoaceticus; test: In vitro antimicrobial activity against Acinetobacter calcoaceticus GC 756 strain; settings: Acinetobacter calcoaceticus; read-out: MIC
Mus musculus [5] = test: Tested for oral activity against Escherichia coli #311 infection in mice after single subcutaneous dose(SSC)
Enterococcus faecium = test: In vitro antimicrobial activity against Enterococcus faecium GC 1182 strain; settings: Enterococcus faecium; read-out: MIC
Escherichia coli [6] = test: In vitro antimicrobial activity against Escherichia coli GC 1792 strain; settings: Escherichia coli; read-out: MIC
Staphylococcus aureus [7] = test: In vitro antimicrobial activity against Staphylococcus aureus GC 2220 strain; settings: Staphylococcus aureus; read-out: MIC
Morganella morganii = test: In vitro antimicrobial activity against Morganella morganii GC 2213 strain; settings: Morganella morganii; read-out: MIC
Enterococcus faecalis = test: In vitro antimicrobial activity against Enterococcus faecalis GC 842 strain; settings: Enterococcus faecalis; read-out: MIC
[8] = tested on: Stenotrophomonas maltophilia; test: In vitro antimicrobial activity against Xanthomonas maltophilia GC 562 strain
Escherichia coli [9] = test: In vitro antimicrobial activity against Escherichia coli GC 2205 strain
Staphylococcus aureus [10] = test: In vitro antimicrobial activity against Staphylococcus aureus ATCC 29213 strain
Mus musculus [11] = species on record: Mus musculus; test: animal or person; settings: Mus musculus, po; read-out: ED50
Description: Tested for oral activity against Escherichia coli #311 infection in mice after single oral dose(SOD)

Citrobacter freundii = test: In vitro antimicrobial activity against Citrobacter freundii GC 2211 strain; settings: Citrobacter freundii; read-out: MIC
Mus musculus [12] = test: Tested for oral activity against Staphylococcus aureus smith infection in mice after single subcutaneous dose(SSC); settings: Mus musculus; read-out: ED50
Mus musculus [13] = species on record: Mus musculus; test: animal or person; settings: Mus musculus; read-out: ED50
Mus musculus [14] = test: Tested for oral activity against Staphylococcus aureus smith infection in mice after single oral dose(SOD); settings: Mus musculus, po; read-out: ED50
[15] = Ratio of ED50 of single oral dose to ED50 of single subcutaneous dose against Staphylococcus aureus smith infection in mice
Mus musculus [16] = test: Tested for oral activity against Staphylococcus aureus smith infection in mice after single subcutaneous dose(SSC); 0.42-0.83
[17] = Ratio of ED50 of single oral dose to ED50 of single subcutaneous dose against Staphylococcus aureus smith infection in mice; 16-8
Mus musculus [18] = test: Tested for oral activity against Staphylococcus aureus smith infection in mice after single subcutaneous dose(SSC); 0.06-0.21
Mus musculus [19] = test: Tested for oral activity against Staphylococcus aureus smith infection in mice after single oral dose(SOD); 0.83-1.7
Mus musculus [20] = test: Tested for oral activity against Staphylococcus aureus smith infection in mice after single subcutaneous dose(SSC); 0.1-0.21
Mus musculus [21] = test: Tested for oral activity against Escherichia coli #311 infection in mice after single subcutaneous dose(SSC); 0.5-1
Mus musculus [22] = test: Tested for oral activity against Staphylococcus aureus smith infection in mice after single oral dose(SOD); 4-8
Mus musculus [23] = test: Tested for oral activity against Staphylococcus aureus smith infection in mice after single subcutaneous dose(SSC); 0.12-0.25

Row | SMILES | MIC (Pseudomonas aeruginosa [1]) | MIC (Enterobacter cloacae) | MIC (Pseudomonas aeruginosa [2]) | MIC (Escherichia coli [3]) | MIC [4] | MIC (Enterococcus faecium) | MIC (Escherichia coli [6]) | MIC (Staphylococcus aureus [7]) | MIC (Morganella morganii) | MIC (Enterococcus faecalis) | MIC [8] | MIC (Escherichia coli [9]) | MIC (Staphylococcus aureus [10]) | ED50 (Mus musculus [11]) | MIC (Citrobacter freundii) | ED50 (Mus musculus [12]) | ED50 (Mus musculus [13]) | ED50 (Mus musculus [14]) | Ratio [15] | also measured
1 | C[C@H]1C(S[C@@H]2CCO[C@@H]2CNC(=O)[C@@H](N)Cc2ccccc2)=C(C(=O)O)N2C(=O)[C@H]([C@@H](C)O)C12 (some centres not stated) | 64 µg/mL (≈ 131 µM) | 4 µg/mL (≈ 8.17 µM) | 128 µg/mL (≈ 261 µM) | 0.5 µg/mL (≈ 1.02 µM) | 32 µg/mL (≈ 65.4 µM) | 128 µg/mL (≈ 261 µM) | 0.5 µg/mL (≈ 1.02 µM) | 8 µg/mL (≈ 16.3 µM) | 2 µg/mL (≈ 4.09 µM) | 1 µg/mL (≈ 2.04 µM) | > 128 µg/mL | 0.06 µg/mL (≈ 0.123 µM) | 0.25 µg/mL (≈ 0.511 µM) | 24 mg/kg | 8 µg/mL (≈ 16.3 µM) | – | – | – | – | ED50 (Mus musculus [5]): 13 mg/kg
2 | C[C@H]1C(S[C@@H]2CCO[C@@H]2CNC(=O)[C@H](N)Cc2ccccc2)=C(C(=O)O)N2C(=O)[C@H]([C@@H](C)O)C12 (some centres not stated) | 64 µg/mL (≈ 131 µM) | 4 µg/mL (≈ 8.17 µM) | 128 µg/mL (≈ 261 µM) | 0.25 µg/mL (≈ 0.511 µM) | 64 µg/mL (≈ 131 µM) | 128 µg/mL (≈ 261 µM) | 0.5 µg/mL (≈ 1.02 µM) | 4 µg/mL (≈ 8.17 µM) | 4 µg/mL (≈ 8.17 µM) | 1 µg/mL (≈ 2.04 µM) | > 128 µg/mL | 0.03 µg/mL (≈ 0.0613 µM) | 0.25 µg/mL (≈ 0.511 µM) | 1.2 mg/kg | 8 µg/mL (≈ 16.3 µM) | 0.06 mg/kg | 0.48 mg/kg | 0.28 mg/kg | 4.7 | –
3 | C[C@H](N)C(=O)NC[C@H]1OCC[C@H]1SC1=C(C(=O)O)N2C(=O)[C@H]([C@@H](C)O)C2[C@H]1C (some centres not stated) | 64 µg/mL (≈ 155 µM) | 0.25 µg/mL (≈ 0.605 µM) | 64 µg/mL (≈ 155 µM) | < 0.06 µg/mL | 8 µg/mL (≈ 19.3 µM) | > 128 µg/mL | 0.12 µg/mL (≈ 0.29 µM) | 8 µg/mL (≈ 19.3 µM) | 1 µg/mL (≈ 2.42 µM) | 2 µg/mL (≈ 4.84 µM) | > 128 µg/mL | < 0.06 µg/mL | < 0.06 µg/mL | – | 1 µg/mL (≈ 2.42 µM) | – | – | 6.6 mg/kg | – | ED50 (Mus musculus [16]): 0.42 mg/kg; Ratio [17]: >16
4 | C[C@@H](N)C(=O)NC[C@@H]1C[C@@H](SC2=C(C(=O)O)N3C(=O)[C@H]([C@@H](C)O)C3[C@H]2C)CO1 (some centres not stated) | 32 µg/mL (≈ 77.4 µM) | 0.12 µg/mL (≈ 0.29 µM) | 64 µg/mL (≈ 155 µM) | < 0.06 µg/mL | 8 µg/mL (≈ 19.3 µM) | > 128 µg/mL | 0.12 µg/mL (≈ 0.29 µM) | 4 µg/mL (≈ 9.67 µM) | 1 µg/mL (≈ 2.42 µM) | 4 µg/mL (≈ 9.67 µM) | > 128 µg/mL | 0.12 µg/mL (≈ 0.29 µM) | < 0.06 µg/mL | – | 0.5 µg/mL (≈ 1.21 µM) | – | – | – | 14 | ED50 (Mus musculus [18]): 0.06 mg/kg; ED50 (Mus musculus [19]): 0.83 mg/kg
5 | C[C@@H](N)C(=O)NC[C@@H]1C[C@H](SC2=C(C(=O)O)N3C(=O)[C@H]([C@@H](C)O)C3[C@H]2C)CO1 (some centres not stated) | 32 µg/mL (≈ 77.4 µM) | 0.25 µg/mL (≈ 0.605 µM) | 64 µg/mL (≈ 155 µM) | < 0.06 µg/mL | 8 µg/mL (≈ 19.3 µM) | > 128 µg/mL | 0.06 µg/mL (≈ 0.145 µM) | 8 µg/mL (≈ 19.3 µM) | 1 µg/mL (≈ 2.42 µM) | 4 µg/mL (≈ 9.67 µM) | > 128 µg/mL | 0.12 µg/mL (≈ 0.29 µM) | < 0.06 µg/mL | – | 1 µg/mL (≈ 2.42 µM) | – | – | – | 8.3 | ED50 (Mus musculus [20]): 0.1 mg/kg; ED50 (Mus musculus [19]): 0.83 mg/kg
6 | C[C@H]1C(S[C@H]2COC[C@H]2CN)=C(C(=O)O)N2C(=O)[C@H]([C@@H](C)O)C12 (some centres not stated) | 16 µg/mL (≈ 46.7 µM) | < 0.06 µg/mL | 32 µg/mL (≈ 93.5 µM) | < 0.06 µg/mL | 2 µg/mL (≈ 5.84 µM) | 128 µg/mL (≈ 374 µM) | < 0.06 µg/mL | 4 µg/mL (≈ 11.7 µM) | 2 µg/mL (≈ 5.84 µM) | 2 µg/mL (≈ 5.84 µM) | > 128 µg/mL | 0.12 µg/mL (≈ 0.35 µM) | < 0.06 µg/mL | – | 0.25 µg/mL (≈ 0.73 µM) | – | – | – | 33 | ED50 (Mus musculus [21]): 0.5 mg/kg; ED50 (Mus musculus [22]): 4 mg/kg; ED50 (Mus musculus [23]): 0.12 mg/kg
7 | CC(C)[C@@H](N)C(=O)NC[C@H]1OCC[C@H]1SC1=C(C(=O)O)N2C(=O)[C@H]([C@@H](C)O)C2[C@H]1C (some centres not stated) | 32 µg/mL (≈ 72.5 µM) | 0.5 µg/mL (≈ 1.13 µM) | 128 µg/mL (≈ 290 µM) | ≤ 0.06 µg/mL | 16 µg/mL (≈ 36.2 µM) | > 128 µg/mL | 0.12 µg/mL (≈ 0.272 µM) | 8 µg/mL (≈ 18.1 µM) | 1 µg/mL (≈ 2.26 µM) | 2 µg/mL (≈ 4.53 µM) | > 128 µg/mL | ≤ 0.06 µg/mL | 0.25 µg/mL (≈ 0.566 µM) | 0.31 mg/kg | 1 µg/mL (≈ 2.26 µM) | 0.07 mg/kg | 0.29 mg/kg | 0.1 mg/kg | 1.4 | –
8 | C[C@@H](N)C(=O)NC[C@H]1OCC[C@H]1SC1=C(C(=O)O)N2C(=O)[C@H]([C@@H](C)O)C2[C@H]1C (some centres not stated) | 32 µg/mL (≈ 77.4 µM) | 0.25 µg/mL (≈ 0.605 µM) | 64 µg/mL (≈ 155 µM) | ≤ 0.06 µg/mL | 16 µg/mL (≈ 38.7 µM) | > 128 µg/mL | ≤ 0.06 µg/mL | 8 µg/mL (≈ 19.3 µM) | 1 µg/mL (≈ 2.42 µM) | 4 µg/mL (≈ 9.67 µM) | > 128 µg/mL | ≤ 0.06 µg/mL | 0.12 µg/mL (≈ 0.29 µM) | 0.55 mg/kg | 1 µg/mL (≈ 2.42 µM) | 0.04 mg/kg | 0.28 mg/kg | 0.09 mg/kg | 2.2 | –
